From US7763645B2, “Carvedilol dihydrogen phosphate monohydrate” (Wanbury Limited, priority 2008, dated 2010)

Assays:
[1] = Dissolution study of capsule formulation (USP Type 1); type: physicochemical; conditions: 0.1 N hydrochloric acid; for % Dissolved: 100 rpm
Experimental: The dissolution rate of carvedilol dihydrogen phosphate monohydrate as a capsule formulation was compared with that of carvedilol phosphate hemihydrate similarly prepared.
The samples for the dissolution study were prepared as follows:
Carvedilol phosphate, 25.0 mg, was accurately weighed along with lactose and other fillers. The mix was filled inside a colorless gelatin capsule shell, size #2. Six such capsules were subjected to dissolution studies, each for the monohydrate and hemi-hydrate material.
The intrinsic solubility of the monohydrate form versus the hemihydrate form of carvedilol is done using the general guidelines for characterizing the dissolution rate as per the United States Pharmacopoeia.
The dissolution conditions were:
Medium: 0.1 N hydrochloric acid, 900 ml
Speed of rotations: 100 per minute.
Temp: 37 degree±0.05 degrees.
The percent dissolved: was determined by UV spectrophotometry at a wavelength of 280 nm.

[2] = Hydrate stability: drying at 110° C. and re-exposure to 75% relative humidity at 37° C.; type: physicochemical
Experimental: The carvedilol dihydrogen phosphate monohydrate prepared by the present processes is dried till constant weight for 4-10 hours at 40-45° C. under vacuum to obtain carvedilol dihydrogen phosphate monohydrate having bound water content in the range of 3.0-4.0% wt/wt; the theoretical moisture content for carvedilol dihydrogen phosphate monohydrate is 3.54% wt/wt. Further, the bound water content was removed by drying the material at 110° C. till the moisture content below 0.5%. The original moisture content was regained after about 10-15 hours when exposed to 75% relative humidity at 37° C. (in air).

[3] = 10 min, 25.0 mg capsule, 900 ml, 37 degree
[4] = 20 min, 25.0 mg capsule, 900 ml, 37 degree
[5] = 30 min, 25.0 mg capsule, 900 ml, 37 degree
[6] = 45 min, 25.0 mg capsule, 900 ml, 37 degree
[7] = 60 min, 25.0 mg capsule, 900 ml, 37 degree

Time to complete dissolution ([1]; 25.0 mg capsule, 900 ml, 37 degree) [min]	% Dissolved ([1]; 90 min, 25.0 mg capsule, 900 ml, 37 degree) [%]	Time to regain original moisture content ([2]; after drying at 110° C. to moisture below 0.5%, exposed to 75% relative humidity at 37° C. (in air)) [h]	Compound	% Dissolved [1, 3] [%]	% Dissolved [1, 4] [%]	% Dissolved [1, 5] [%]	% Dissolved [1, 6] [%]	% Dissolved [1, 7] [%]	Rate of dissolution compared with hemihydrate form ([1]; capsule)	Stability of hydrate form ([2]; drying at 110° C., then 75% relative humidity at 37° C. (in air))	% Dissolved ([1]; 90 min, 25.0 mg capsule, 900 ml, 37 degree, Phosphate Hemihydrate) [%]	% Dissolved ([1]; 90 min, 25.0 mg capsule, 900 ml, 37 degree, listed as hemihydrate form, Phosphate Hemihydrate)
≤ 90	101.55	10 to 15	COc1ccccc1OCCNCC(O)COc1cccc2[nH]c3ccccc3c12.O=P(O)(O)O (centres unmarked) [Monohydrate form, 1-(9H-carbazol-4-yloxy)-3-[[2-(2-methoxyphenoxy)ethyl]amino]-propan-2-ol]	46.20	68.28	82.45	95.89	96.81	faster rate of dissolution than the hemihydrate form	stable and does not convert into the dihydrate or hemihydrate form		
			Carvedilol Dihydrogen Phosphate Hemihydrate [Hemihydrate form, reference compound]	45.95	63.75	68.43	75.99	82.68			88.95	less than 90%
